Test system: 349418-098-R-PDC complex spheroid viability
Experiment: Anticancer human tumor 349418-098-R-PDC patient-derived lung adenocarcinoma cell line growth inhibition [RAS]
Details: for IC50: curve of first compound; for viability, T/C: stronger effect = lower value; active means viability on the fitted dose curve at most 10% of control; inactive means the rest
In short: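 Multi-cell-type spheroids: tumor cells plus HUVEC endothelial cells and mesenchymal stem cells. RAS-pathway inhibitors were combined with targeted agents, each dosed in half-log steps down from clinical Cmax, or from 10 microM when Cmax was unknown.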

[1] = second compound 0.000949 µM, first compound 0.00316 µM
[2] = second compound 0.000949 µM, first compound 0.01 µM
[3] = second compound 0.000949 µM, first compound 0.0316 µM
[4] = second compound 0.000949 µM, first compound 0.1 µM
[5] = second compound 0.000949 µM, first compound 0.316 µM
[6] = second compound 0.000949 µM, first compound 1 µM
[7] = second compound 0.003 µM, first compound 0.00316 µM
[8] = second compound 0.003 µM, first compound 0.01 µM
[9] = second compound 0.003 µM, first compound 0.0316 µM
[10] = second compound 0.003 µM, first compound 0.1 µM
[11] = second compound 0.003 µM, first compound 0.316 µM
[12] = second compound 0.003 µM, first compound 1 µM
[13] = second compound 0.00949 µM, first compound 0.00316 µM
[14] = second compound 0.00949 µM, first compound 0.01 µM
[15] = second compound 0.00949 µM, first compound 0.0316 µM
[16] = second compound 0.00949 µM, first compound 0.1 µM
[17] = second compound 0.00949 µM, first compound 0.316 µM
[18] = second compound 0.00949 µM, first compound 1 µM
[19] = second compound 0.03 µM, first compound 0.00316 µM
[20] = second compound 0.03 µM, first compound 0.01 µM
[21] = second compound 0.03 µM, first compound 0.0316 µM
[22] = second compound 0.03 µM, first compound 0.1 µM
[23] = second compound 0.03 µM, first compound 0.316 µM
[24] = second compound 0.03 µM, first compound 1 µM
[25] = second compound 0.0949 µM, first compound 0.00316 µM
[26] = second compound 0.0949 µM, first compound 0.01 µM
[27] = second compound 0.0949 µM, first compound 0.0316 µM
[28] = second compound 0.0949 µM, first compound 0.1 µM
[29] = second compound 0.0949 µM, first compound 0.316 µM
[30] = second compound 0.0949 µM, first compound 1 µM
[31] = second compound 0.3 µM, first compound 0.00316 µM
[32] = second compound 0.3 µM, first compound 0.01 µM
[33] = second compound 0.3 µM, first compound 0.0316 µM
[34] = second compound 0.3 µM, first compound 0.1 µM
[35] = second compound 0.3 µM, first compound 0.316 µM
[36] = second compound 0.3 µM, first compound 1 µM
[37] = second compound 0.000949 µM, first compound 3.16 µM
[38] = second compound 0.000949 µM, first compound 10 µM
[39] = second compound 0.003 µM, first compound 3.16 µM
[40] = second compound 0.003 µM, first compound 10 µM
[41] = second compound 0.00949 µM, first compound 3.16 µM
[42] = second compound 0.00949 µM, first compound 10 µM
[43] = second compound 0.03 µM, first compound 3.16 µM
[44] = second compound 0.03 µM, first compound 10 µM
[45] = second compound 0.0949 µM, first compound 3.16 µM
[46] = second compound 0.0949 µM, first compound 10 µM
[47] = second compound 0.3 µM, first compound 3.16 µM
[48] = second compound 0.3 µM, first compound 10 µM
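Further: spheroids exposed to compound for seven days before viability readout.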

C=CC(=O)Nc1cc(Nc2nccc(-c3cn(C)c4ccccc34)n2)c(OC)cc1N(C)CCN(C)C + CCn1c(-c2cc(N3CCN(C)CC3)cnc2C(C)OC)c2c3cc(ccc31)-c1csc(n1)CC(NC(=O)C1CC1C)C(=O)N1CCCC(N1)C(=O)OCC(C)(C)C2
inactive: viability, T/C [1] 101% | viability, T/C [2] 94.8% | viability, T/C [3] 112% | viability, T/C [4] 109% | viability, T/C [5] 96.8% | viability, T/C [6] 76% | viability, T/C [7] 112% | viability, T/C [8] 95.8% | viability, T/C [9] 94.4% | viability, T/C [10] 98.7% | viability, T/C [11] 95% | viability, T/C [12] 70.3% | viability, T/C [13] 100% | viability, T/C [14] 88.5% | viability, T/C [15] 94.8% | viability, T/C [16] 75.8% | viability, T/C [17] 98.6% | viability, T/C [18] 75.7% | viability, T/C [19] 100% | viability, T/C [20] 107% | viability, T/C [21] 107% | viability, T/C [22] 102% | viability, T/C [23] 92.1% | viability, T/C [24] 65.3% | viability, T/C [25] 105% | viability, T/C [26] 101% | viability, T/C [27] 97.8% | viability, T/C [28] 105% | viability, T/C [29] 86.7% | viability, T/C [30] 72.8% | viability, T/C [31] 98.1% | viability, T/C [32] 101% | viability, T/C [33] 108% | viability, T/C [34] 102% | viability, T/C [35] 109% | viability, T/C [36] 77.6%
> 1000 nM: IC50 (second compound 0.000949 µM) | IC50 (second compound 0.003 µM) | IC50 (second compound 0.00949 µM) | IC50 (second compound 0.03 µM) | IC50 (second compound 0.0949 µM) | IC50 (second compound 0.3 µM)

CC(C)NCC(C(=O)N1CCN(c2ncnc3c2C(C)CC3O)CC1)c1ccc(Cl)cc1 (stereo not drawn) + CCn1c(-c2cc(N3CCN(C)CC3)cnc2C(C)OC)c2c3cc(ccc31)-c1csc(n1)CC(NC(=O)C1CC1C)C(=O)N1CCCC(N1)C(=O)OCC(C)(C)C2
1150 nM: IC50 (second compound 0.00949 µM)
1190 nM: IC50 (second compound 0.0949 µM)
829 nM: IC50 (second compound 0.3 µM)
831 nM: IC50 (second compound 0.003 µM)
inactive: viability, T/C [3] 97% | viability, T/C [4] 86.3% | viability, T/C [5] 71.5% | viability, T/C [6] 47.3% | viability, T/C [37] 23.5% | viability, T/C [38] 14.2% | viability, T/C [9] 117% | viability, T/C [10] 101% | viability, T/C [11] 70.2% | viability, T/C [12] 45.8% | viability, T/C [39] 28.4% | viability, T/C [40] 15.1% | viability, T/C [15] 110% | viability, T/C [16] 97.6% | viability, T/C [17] 78.9% | viability, T/C [18] 53% | viability, T/C [41] 29.3% | viability, T/C [42] 14.8% | viability, T/C [21] 113% | viability, T/C [22] 90.1% | viability, T/C [23] 61.3% | viability, T/C [24] 45.9% | viability, T/C [43] 34.6% | viability, T/C [44] 11.4% | viability, T/C [27] 108% | viability, T/C [28] 118% | viability, T/C [29] 90.3% | viability, T/C [30] 54.5% | viability, T/C [45] 25.4% | viability, T/C [46] 10.8% | viability, T/C [33] 113% | viability, T/C [34] 104% | viability, T/C [35] 76.4% | viability, T/C [36] 38.6% | viability, T/C [47] 36% | viability, T/C [48] 11.6%
864 nM: IC50 (second compound 0.03 µM)
843 nM: IC50 (second compound 0.000949 µM)

CC(Nc1ccc2c(c1)OCCn1cc(N3C(=O)OCC3C(F)F)nc1-2)C(N)=O (stereo not drawn) + CCn1c(-c2cc(N3CCN(C)CC3)cnc2C(C)OC)c2c3cc(ccc31)-c1csc(n1)CC(NC(=O)C1CC1C)C(=O)N1CCCC(N1)C(=O)OCC(C)(C)C2
158 nM: IC50 (second compound 0.00949 µM)
93.8 nM: IC50 (second compound 0.003 µM)
169 nM: IC50 (second compound 0.3 µM)
145 nM: IC50 (second compound 0.0949 µM)
inactive: viability, T/C [3] 75.9% | viability, T/C [4] 56.3% | viability, T/C [5] 25.9% | viability, T/C [6] 19.5% | viability, T/C [37] 25.7% | viability, T/C [38] 14.8% | viability, T/C [9] 78.6% | viability, T/C [10] 49.9% | viability, T/C [11] 25.1% | viability, T/C [12] 25.5% | viability, T/C [39] 15.4% | viability, T/C [40] 13.2% | viability, T/C [15] 85.8% | viability, T/C [16] 57.5% | viability, T/C [17] 39.6% | viability, T/C [18] 21.4% | viability, T/C [41] 20.3% | viability, T/C [42] 14% | viability, T/C [21] 76.4% | viability, T/C [22] 44.7% | viability, T/C [23] 36.8% | viability, T/C [24] 21.9% | viability, T/C [43] 16.7% | viability, T/C [44] 17.3% | viability, T/C [27] 77.8% | viability, T/C [28] 59.2% | viability, T/C [29] 30.7% | viability, T/C [30] 21.5% | viability, T/C [45] 25.5% | viability, T/C [46] 15.9% | viability, T/C [33] 89.2% | viability, T/C [34] 57.2% | viability, T/C [35] 42% | viability, T/C [36] 26.8% | viability, T/C [47] 26.6% | viability, T/C [48] 18.8%
127 nM: IC50 (second compound 0.000949 µM)
91.6 nM: IC50 (second compound 0.03 µM)

O=C(c1ccc(F)c(F)c1Nc1ccc(I)cc1F)N1CC(O)([C@@H]2CCCCN2)C1 + CCn1c(-c2cc(N3CCN(C)CC3)cnc2C(C)OC)c2c3cc(ccc31)-c1csc(n1)CC(NC(=O)C1CC1C)C(=O)N1CCCC(N1)C(=O)OCC(C)(C)C2
< 3.16 nM: IC50 (second compound 0.000949 µM) | IC50 (second compound 0.003 µM) | IC50 (second compound 0.00949 µM) | IC50 (second compound 0.03 µM) | IC50 (second compound 0.0949 µM) | IC50 (second compound 0.3 µM)
active: viability, T/C [4] 7.55% | viability, T/C [5] 6.32% | viability, T/C [6] 4.06% | viability, T/C [10] 7.55% | viability, T/C [11] 5.82% | viability, T/C [12] 4.4% | viability, T/C [14] 7.54% | viability, T/C [15] 7.52% | viability, T/C [16] 5.46% | viability, T/C [17] 5.26% | viability, T/C [18] 4.12% | viability, T/C [20] 8.8% | viability, T/C [21] 6.96% | viability, T/C [22] 5.38% | viability, T/C [23] 5.09% | viability, T/C [24] 4.3% | viability, T/C [25] 9.09% | viability, T/C [26] 6.88% | viability, T/C [27] 5.8% | viability, T/C [28] 5.07% | viability, T/C [29] 5.29% | viability, T/C [30] 4.24% | viability, T/C [32] 7.65% | viability, T/C [33] 5.68% | viability, T/C [34] 5.13% | viability, T/C [35] 4.83% | viability, T/C [36] 4.09%
inactive: viability, T/C [1] 25.6% | viability, T/C [2] 15.3% | viability, T/C [3] 12.3% | viability, T/C [7] 26.8% | viability, T/C [8] 17.7% | viability, T/C [9] 11% | viability, T/C [13] 20% | viability, T/C [19] 14.1% | viability, T/C [31] 11.8%

Reference: PubChem BioAssay AID2060904 (Molecular Pharmacology Branch, DTP, NCI, 2025)
